Test results taken from US20210139484A1, “DIHYDROISOQUINOLINE-2(1H)-CARBOXAMIDE AND RELATED COMPOUNDS AND THEIR USE IN TREATING MEDICAL CONDITIONS” (GOSSAMER BIO SERVICES, INC., priority 2018, published 2021).

biological target: T1, human HPK1 protein (Homo sapiens, UniProt Q92918); assay: Human HPK1 protein TR-FRET assay; format: biochemical; settings: 1 mM ATP, Table 19
T1 construct: recombinant human HPK1 protein (a.a. 1-346) was expressed in Sf9 insect cells; GST (N); purchased Signalchem M23-11G; host or cells: Sf9 insect cells (baculovirus)
T1 sequence (Q92918 1-346): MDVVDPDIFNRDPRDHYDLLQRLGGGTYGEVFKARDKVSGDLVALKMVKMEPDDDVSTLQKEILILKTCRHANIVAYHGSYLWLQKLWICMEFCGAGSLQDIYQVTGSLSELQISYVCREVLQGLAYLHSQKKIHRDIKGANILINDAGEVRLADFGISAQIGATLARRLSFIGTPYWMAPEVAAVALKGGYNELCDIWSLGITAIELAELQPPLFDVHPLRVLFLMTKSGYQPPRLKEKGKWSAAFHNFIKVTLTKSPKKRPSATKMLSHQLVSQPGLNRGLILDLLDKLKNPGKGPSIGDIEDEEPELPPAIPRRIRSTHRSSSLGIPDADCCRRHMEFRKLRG
How it was run: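 Read-out was TR-FRET using Eu-labeled anti-phospho-CREB (Ser133) antibody, with the 665/615 nm signal ratio normalised to DMSO-only wells and fitted by a 4-parameter logistic model for IC50. Reactions held 10 nM Sf9-expressed GST-HPK1 (a.a. 1-346), 100 nM CREBtide and 1 mM ATP, run 60 minutes at room temperature, pH 7.5.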

Row | IC50 [nM] | SMILES
1 | < 500 | CCN1CCN(Cc2ccc(NC(=O)N3CCc4ccc(Oc5ncnn6cccc56)cc4C3)cc2C(F)(F)F)CC1 [compound 1, N-[4-[(4-Ethylpiperazin-1-yl)methyl]-3-(trifluoromethyl)phenyl]-7-[pyrrolo[2,1-f][1,2,4]triazin-4-yloxy]-1,2,3,4-tetrahydroisoquinoline-2-carboxamide]
2 | < 500 | CCN1CCN(Cc2ccc(NC(=O)N3CCc4ccc(Oc5ccnc6[nH]ccc56)cc4C3)cc2C(F)(F)F)CC1 [compound 2, 7-((1H-Pyrrolo[2,3-b]pyridin-4-yl)oxy)-N-(4-((4-ethylpiperazin-1-yl)methyl)-3-(trifluoromethyl)phenyl)-3,4-dihydroisoquinoline-2(1H)-carboxamide]
3 | < 500 | CCN1CCN(Cc2ccc(NC(=O)N3CCc4cc(F)c(Oc5ccnc6[nH]ccc56)cc4C3)cc2C(F)(F)F)CC1 [compound 3, 7-((1H-Pyrrolo[2,3-b]pyridin-4-yl)oxy)-N-(4-((4-ethylpiperazin-1-yl)methyl)-3-(trifluoromethyl)phenyl)-6-fluoro-3,4-dihydroisoquinoline-2(1H)-carboxamide]
4 | < 500 | CCN1CCN(Cc2ccc(NC(=O)N3Cc4cc(Oc5ccnc6[nH]ccc56)c(F)cc4C(C)C3)cc2C(F)(F)F)CC1 (stereo not shown) [compound 4, 7-((1H-pyrrolo[2,3-b]pyridin-4-yl)oxy)-N-(4-((4-ethylpiperazin-1-yl)methyl)-3-(trifluoromethyl)phenyl)-6-fluoro-4-methyl-3,4-dihydroisoquinoline-2(1H)-carboxamide]
5 | < 500 | CCN1CCN(Cc2ccc(NC(=O)N3CCc4ccc(Oc5ccnc6[nH]ccc56)cc4[C@@H]3C)cc2C(F)(F)F)CC1 [compound 6, (S)-7-((1H-Pyrrolo[2,3-b]pyridin-4-yl)oxy)-N-(4-((4-ethylpiperazin-1-yl)methyl)-3-(trifluoromethyl)phenyl)-1-methyl-3,4-dihydroisoquinoline-2(1H)-carboxamide]
6 | < 500 | C[C@H]1c2cc(Oc3ccnc4[nH]ccc34)ccc2CCN1C(=O)Nc1cnc(OC2CCN(C)CC2)c(C(F)(F)F)c1 [compound 7, (S)-7-((1H-pyrrolo[2,3-b]pyridin-4-yl)oxy)-1-methyl-N-(6-((1-methylpiperidin-4-yl)oxy)-5-(trifluoromethyl)pyridin-3-yl)-3,4-dihydroisoquinoline-2(1H)-carboxamide]
7 | < 500 | CCN1CCN(Cc2ccc(NC(=O)N3CCc4ncc(Oc5ncnn6cccc56)cc4C3)cc2C(F)(F)F)CC1 [compound 8, N-[4-[(4-Ethylpiperazin-1-yl)methyl]-3-(trifluoromethyl)phenyl]-3-[pyrrolo[2,1-f][1,2,4]triazin-4-yloxy]-5,6,7,8-tetrahydro-1,6-naphthyridine-6-carboxamide]
8 | < 500 | CCN1CCN(Cc2ccc(NC(=O)N3CCc4ncc(Oc5ccnc6[nH]ccc56)cc4C3C)cc2C(F)(F)F)CC1 (stereo not shown) [compound 9, 3-((1H-pyrrolo[2,3-b]pyridin-4-yl)oxy)-N-(4-((4-ethylpiperazin-1-yl)methyl)-3-(trifluoromethyl)phenyl)-5-methyl-7,8-dihydro-1,6-naphthyridine-6(5H)-carboxamide]
9 | < 500 | CCN1CCN(Cc2ccc(NC(=O)N3Cc4cc(Oc5ccnc6[nH]ccc56)cnc4C(C)C3)cc2C(F)(F)F)CC1 (stereo not shown) [compound 10, 3-((1H-Pyrrolo[2,3-b]pyridin-4-yl)oxy)-N-(4-((4-ethylpiperazin-1-yl)methyl)-3-(trifluoromethyl)phenyl)-8-methyl-7,8-dihydro-1,6-naphthyridine-6(5H)-carboxamide]
10 | 500 to 5000 | CCN1CCN(Cc2ccc(NC(=O)N3CCc4ccc(Nc5ncnn6cccc56)cc4C3)cc2C(F)(F)F)CC1 [compound 11, N-(4-((4-Ethylpiperazin-1-yl)methyl)-3-(trifluoromethyl)phenyl)-7-(pyrrolo[2,1-f][1,2,4]triazin-4-ylamino)-3,4-dihydroisoquinoline-2(1H)-carboxamide]
11 | 500 to 5000 | CCN1CCN(Cc2ccc(NC(=O)C3CCc4ccc(Oc5cc(NC)ncn5)cc4C3)cc2C(F)(F)F)CC1 (stereo not shown) [compound 12, N-(4-((4-ethylpiperazin-1-yl)methyl)-3-(trifluoromethyl)phenyl)-7-((6-(methylamino)pyrimidin-4-yl)oxy)-1,2,3,4-tetrahydronaphthalene-2-carboxamide]

same assay, conditions: 1 mM ATP, Table 20

Row | SMILES | IC50 [nM]
12 | CCN1CCN(Cc2ccc(NC(=O)N3Cc4cc(Oc5ccnc6[nH]c(C)cc56)c(C)nc4C(C)C3)cc2C(F)(F)F)CC1 (stereo not shown) [XVIII-2] | < 500
13 | CN(C)C(=O)c1cc2c(Oc3ccc4c(c3)CN(C(=O)Nc3ccc(CN5CCNCC5)c(C(F)(F)F)c3)CC4)c(F)cnc2[nH]1 [XVIII-3] | < 500
14 | CN1CCN(Cc2ccc(NC(=O)N3CCc4ccc(Oc5c(F)cnc6[nH]c(C(=O)N(C)C)cc56)cc4C3)cc2C(F)(F)F)CC1 [XVIII-4] | < 500
15 | O=C(Nc1ccc(CN2CCNCC2)c(C(F)(F)F)c1)N1CCc2ccc(Oc3c(F)cnc4[nH]c(C5(O)CC5)cc34)cc2C1 [XVIII-5] | < 500
16 | CN1CCN(Cc2ccc(NC(=O)N3CCc4ccc(Oc5c(F)cnc6[nH]c(C7(O)CC7)cc56)cc4C3)cc2C(F)(F)F)CC1 [XVIII-6] | < 500
17 | O=C(Nc1ccc(CN2CCNCC2)c(C(F)(F)F)c1)N1CCc2ccc(Oc3ccnc4[nH]c(C5(O)CC5)cc34)cc2C1 [XVIII-9] | < 500
18 | CN1CCN(Cc2ccc(NC(=O)N3CCc4ccc(Oc5ccnc6[nH]c(C7(O)CC7)cc56)cc4C3)cc2C(F)(F)F)CC1 [XVIII-10] | < 500
19 | CCN1CCN(Cc2ccc(NC(=O)N3CCc4cnc(Nc5ccnc6[nH]ccc56)nc4C3)cc2C(F)(F)F)CC1 [XVIII-11] | 500 to 5000
20 | CN1CCN(Cc2ccc(NC(=O)N3Cc4cc(Oc5ccnc6[nH]c(C7(O)CC7)cc56)ccc4C(C(F)(F)F)C3)cc2C(F)(F)F)CC1 (stereo not shown) [XVIII-12] | < 500
21 | CN1CCN(Cc2ccc(NC(=O)N3Cc4cc(Oc5ccnc6[nH]c(C(=O)N(C)C)cc56)ccc4C(C(F)(F)F)C3)cc2C(F)(F)F)CC1 (stereo not shown) [XVIII-13] | < 500
22 | CN1CCN(Cc2ccc(NC(=O)N3Cc4cc(Oc5ccnc6[nH]ccc56)ccc4C(C(F)(F)F)C3)cc2C(F)(F)F)CC1 (stereo not shown) [XVIII-14] | < 500
23 | CCN1CCN(Cc2ccc(NC(=O)N3Cc4cc(Oc5ccnc6[nH]ccc56)ccc4C(C(F)(F)F)C3)cc2C(F)(F)F)CC1 (stereo not shown) [XVIII-15] | < 500
24 | CC[C@H]1Cc2ncc(Oc3ccnc4[nH]ccc34)cc2CN1C(=O)Nc1ccc(CN2CCN(CC)CC2)c(C(F)(F)F)c1 [XVIII-16] | < 500
25 | CC[C@@H]1Cc2ncc(Oc3ccnc4[nH]ccc34)cc2CN1C(=O)Nc1ccc(CN2CCN(CC)CC2)c(C(F)(F)F)c1 [XVIII-17] | < 500
26 | CCN1CCN(Cc2ccc(NC(=O)N3Cc4cc(Oc5ccnc6[nH]ccc56)cnc4C[C@@H]3C)cc2C(F)(F)F)CC1 [XVIII-18] | < 500
27 | CCN1CCN(Cc2ccc(NC(=O)N3Cc4cc(Oc5ccnc6[nH]ccc56)cnc4C[C@H]3C)cc2C(F)(F)F)CC1 [XVIII-19] | < 500

Other lines, results leading:

Row | IC50 [nM] | SMILES
28 | < 500 | C[C@@H]1Cc2ccc(Oc3ccnc4[nH]c(C5(O)CC5)cc34)cc2CN1C(=O)Nc1ccc(CN2CCN(C)CC2)c(C(F)(F)F)c1 [XVI-2]
29 | < 500 | C[C@@H]1Cc2ccc(Oc3ccnc4[nH]c(C5(O)CC5)cc34)cc2CN1C(=O)Nc1cnc(CN2CCN(C)CC2)c(C(F)(F)F)c1 [XVI-3]
30 | < 500 | C[C@@H]1Cc2ccc(Oc3c(F)cnc4[nH]c(-c5cnn(C)c5)cc34)cc2CN1C(=O)Nc1ccc(CN2CCN(C)CC2)c(C(F)(F)F)c1 [XVI-4]
31 | < 500 | C[C@@H]1Cc2ccc(Oc3c(F)cnc4[nH]c(-c5cnn(C)c5)cc34)cc2CN1C(=O)Nc1cnc(CN2CCN(C)CC2)c(C(F)(F)F)c1 [XVI-5]
32 | < 500 | C[C@@H]1Cc2ccc(Oc3ccnc4[nH]c(C(=O)N(C)C)cc34)cc2CN1C(=O)Nc1cnc(O[C@@H]2CCN(C)C[C@@H]2O)c(C(F)(F)F)c1 [XVI-6]
33 | < 500 | C[C@@H]1Cc2ccc(Oc3ccnc4[nH]c(C(=O)N(C)C)cc34)cc2CN1C(=O)Nc1cnc(OC2CCN(C)CC2)c(C(F)(F)F)c1 [XVI-7]
34 | < 500 | C[C@@H]1Cc2ccc(Oc3c(F)cnc4[nH]c(C5(O)CC5)cc34)cc2CN1C(=O)Nc1cnc(CN2CCN(C)CC2)c(C(F)(F)F)c1 [XVI-8]
35 | < 500 | C[C@@H]1Cc2ccc(Oc3c(F)cnc4[nH]c(C5(O)CC5)cc34)cc2CN1C(=O)Nc1ccc(CN2CCN(C)CC2)c(C(F)(F)F)c1 [XVI-9]
36 | < 500 | C[C@@H]1Cc2ccc(Oc3ccnc4[nH]c(C(=O)N(C)C)cc34)cc2CN1C(=O)Nc1cnc(CN2CCN(C)CC2)c(C(F)(F)F)c1 [XVI-10]
37 | < 500 | CCC1CN(C(=O)Nc2ccc(CN3CCN(CC)CC3)c(C(F)(F)F)c2)Cc2cc(Nc3c(F)cnc4[nH]c(-c5cnn(C)c5)cc34)cnc21 (stereo not shown) [XVII-1]
38 | < 500 | CN1CCN(Cc2ncc(NC(=O)N3CCc4ccc(Nc5c(F)cnc6[nH]c(-c7cnn(C)c7)cc56)cc4C3)cc2C(F)(F)F)CC1 [XVII-2]
39 | < 500 | CN1CCN(Cc2ccc(NC(=O)N3CCc4cc(F)c(Nc5c(F)cnc6[nH]c(-c7cnn(C)c7)cc56)cc4C3)cc2C(F)(F)F)CC1 [XVII-3]
40 | < 500 | CN1CCN(Cc2ncc(NC(=O)N3CCc4cc(F)c(Nc5c(F)cnc6[nH]c(-c7cnn(C)c7)cc56)cc4C3)cc2C(F)(F)F)CC1 [XVII-4]
